Our source for the inhibition and residual activity values is ChEMBL document CHEMBL5696442, “Discovery of type II inhibitors of TGFβ-activated kinase 1 (TAK1) and mitogen-activated protein kinase kinase kinase kinase 2 (MAP4K2)” (J Med Chem, 2015).

Experiment [1] concerns the target T1, Mixed lineage kinase domain-like protein (Homo sapiens) (UniProt Q8NB16).
T1 sequence (whole entry): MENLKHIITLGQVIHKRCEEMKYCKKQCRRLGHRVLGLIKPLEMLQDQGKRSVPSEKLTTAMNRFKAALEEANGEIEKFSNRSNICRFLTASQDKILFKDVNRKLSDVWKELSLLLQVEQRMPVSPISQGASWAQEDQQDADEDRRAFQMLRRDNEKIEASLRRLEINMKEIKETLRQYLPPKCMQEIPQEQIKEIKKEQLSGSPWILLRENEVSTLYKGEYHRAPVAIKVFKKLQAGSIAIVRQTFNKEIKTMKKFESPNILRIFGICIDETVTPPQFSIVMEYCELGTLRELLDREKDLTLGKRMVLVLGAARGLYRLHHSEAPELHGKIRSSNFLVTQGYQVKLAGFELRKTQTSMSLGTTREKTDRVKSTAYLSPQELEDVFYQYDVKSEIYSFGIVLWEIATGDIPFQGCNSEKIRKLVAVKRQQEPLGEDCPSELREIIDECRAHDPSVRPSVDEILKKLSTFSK
The experiment is described as follows: Inhibition of MLKL Lys1 labeling site in human A-375 cells at 5 uM by KiNativ Profiling analysis relative to control. In kind it is cell-based.

The target in experiment [2] is Mitogen-activated protein kinase kinase kinase kinase 1 (Homo sapiens) (UniProt Q92918). The experiment is described as follows: Inhibition of HPK1 (unknown origin) at 1 uM by Ambit Kinomescan binding assay relative to control; values are per cent of control.
For experiment [3], the target named is Serine/threonine-protein kinase PAK 1 (Homo sapiens) (UniProt Q13153). The experiment is described as follows: Inhibition of PAK1 (unknown origin) at 10 uM by Ambit Kinomescan binding assay.
In experiment [4] the target is T2, Phosphatidylinositol 5-phosphate 4-kinase type-2 alpha (Homo sapiens) (UniProt P48426).
T2 sequence (whole entry): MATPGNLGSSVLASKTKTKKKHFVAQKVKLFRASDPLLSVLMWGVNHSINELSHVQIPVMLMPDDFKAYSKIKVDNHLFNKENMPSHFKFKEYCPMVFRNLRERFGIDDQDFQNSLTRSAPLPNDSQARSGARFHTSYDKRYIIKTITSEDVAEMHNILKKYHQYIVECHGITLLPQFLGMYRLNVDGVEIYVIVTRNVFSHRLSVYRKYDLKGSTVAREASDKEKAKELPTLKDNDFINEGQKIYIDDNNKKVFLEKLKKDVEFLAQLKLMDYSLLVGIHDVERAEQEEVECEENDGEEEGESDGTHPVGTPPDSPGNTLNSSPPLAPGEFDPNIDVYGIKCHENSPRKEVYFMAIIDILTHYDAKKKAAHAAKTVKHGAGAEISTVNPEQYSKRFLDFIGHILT
Put plainly: Inhibition of PIP5K2A LIP labeling site in human Huh-7 cells at 1 uM by KiNativ Profiling analysis relative to control. In kind it is cell-based.

Experiment [5] has as its target Serine/threonine-protein kinase ATR (Homo sapiens) (UniProt Q13535). The experiment is described as follows: Inhibition of ATR ATP labeling site in human A-375 cells at 0.5 uM by KiNativ Profiling analysis relative to control. The experiment is classed as cell-based.
Experiment [6] addresses T3, Eukaryotic translation initiation factor 2-alpha kinase 3 (Homo sapiens) (UniProt Q9NZJ5).
T3 sequence (whole entry): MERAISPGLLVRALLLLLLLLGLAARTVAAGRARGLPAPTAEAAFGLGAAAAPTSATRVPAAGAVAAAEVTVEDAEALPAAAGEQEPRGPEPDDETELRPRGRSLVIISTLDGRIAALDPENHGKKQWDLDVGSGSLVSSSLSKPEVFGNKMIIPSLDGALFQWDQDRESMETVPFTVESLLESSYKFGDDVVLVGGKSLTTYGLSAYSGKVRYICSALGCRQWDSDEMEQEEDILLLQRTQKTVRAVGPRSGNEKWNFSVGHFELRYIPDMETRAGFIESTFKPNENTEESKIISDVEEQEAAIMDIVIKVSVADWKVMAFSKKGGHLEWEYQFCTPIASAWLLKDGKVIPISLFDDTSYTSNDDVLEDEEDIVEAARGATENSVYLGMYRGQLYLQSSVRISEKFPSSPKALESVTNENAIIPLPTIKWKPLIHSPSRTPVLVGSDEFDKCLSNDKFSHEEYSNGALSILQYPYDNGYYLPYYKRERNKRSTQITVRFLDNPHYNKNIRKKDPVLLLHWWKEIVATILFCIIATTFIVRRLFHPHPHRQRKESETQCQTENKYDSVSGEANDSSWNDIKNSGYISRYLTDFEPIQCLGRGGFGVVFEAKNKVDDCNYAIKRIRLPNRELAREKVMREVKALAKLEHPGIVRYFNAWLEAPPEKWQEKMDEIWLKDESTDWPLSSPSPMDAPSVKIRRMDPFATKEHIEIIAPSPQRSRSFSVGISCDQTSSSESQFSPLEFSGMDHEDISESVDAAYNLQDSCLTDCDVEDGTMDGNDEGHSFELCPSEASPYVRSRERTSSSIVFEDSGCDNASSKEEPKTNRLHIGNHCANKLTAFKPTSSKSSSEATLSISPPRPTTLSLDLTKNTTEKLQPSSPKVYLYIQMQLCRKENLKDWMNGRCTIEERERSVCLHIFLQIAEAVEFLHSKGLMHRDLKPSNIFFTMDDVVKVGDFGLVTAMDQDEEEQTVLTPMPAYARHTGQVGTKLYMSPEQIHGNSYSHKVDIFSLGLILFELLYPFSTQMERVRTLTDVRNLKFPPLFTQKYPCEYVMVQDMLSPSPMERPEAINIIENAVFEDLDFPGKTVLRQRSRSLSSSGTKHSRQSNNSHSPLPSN
Put plainly: Inhibition of PEK Lys2 labeling site in human Huh-7 cell lysate at 1 uM by KiNativ Profiling analysis relative to control. In kind it is subcellular.

The source made the active and inactive calls. No cut-off for these calls is given here.

Broadly, the inhibition is the change of the read-out against control, counted positive when it falls.

Serine/threonine-protein kinase PAK 1 (Homo sapiens), sequence (Q13153 whole entry, looked up): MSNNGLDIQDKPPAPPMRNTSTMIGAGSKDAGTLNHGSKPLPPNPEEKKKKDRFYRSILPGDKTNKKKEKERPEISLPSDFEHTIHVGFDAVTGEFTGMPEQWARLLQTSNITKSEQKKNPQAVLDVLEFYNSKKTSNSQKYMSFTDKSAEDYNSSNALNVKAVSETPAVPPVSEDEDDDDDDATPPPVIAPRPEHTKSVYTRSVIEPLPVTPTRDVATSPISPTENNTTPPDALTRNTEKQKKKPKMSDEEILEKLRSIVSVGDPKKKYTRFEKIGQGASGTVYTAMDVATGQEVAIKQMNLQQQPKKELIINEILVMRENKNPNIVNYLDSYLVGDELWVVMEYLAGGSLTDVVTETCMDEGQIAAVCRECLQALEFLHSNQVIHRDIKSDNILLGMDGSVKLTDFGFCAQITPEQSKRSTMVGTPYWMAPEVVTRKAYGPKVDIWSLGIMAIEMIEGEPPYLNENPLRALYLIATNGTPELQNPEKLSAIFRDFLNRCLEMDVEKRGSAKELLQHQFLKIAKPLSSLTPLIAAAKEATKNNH
Mitogen-activated protein kinase kinase kinase kinase 1 (Homo sapiens), sequence (Q92918 whole entry, looked up): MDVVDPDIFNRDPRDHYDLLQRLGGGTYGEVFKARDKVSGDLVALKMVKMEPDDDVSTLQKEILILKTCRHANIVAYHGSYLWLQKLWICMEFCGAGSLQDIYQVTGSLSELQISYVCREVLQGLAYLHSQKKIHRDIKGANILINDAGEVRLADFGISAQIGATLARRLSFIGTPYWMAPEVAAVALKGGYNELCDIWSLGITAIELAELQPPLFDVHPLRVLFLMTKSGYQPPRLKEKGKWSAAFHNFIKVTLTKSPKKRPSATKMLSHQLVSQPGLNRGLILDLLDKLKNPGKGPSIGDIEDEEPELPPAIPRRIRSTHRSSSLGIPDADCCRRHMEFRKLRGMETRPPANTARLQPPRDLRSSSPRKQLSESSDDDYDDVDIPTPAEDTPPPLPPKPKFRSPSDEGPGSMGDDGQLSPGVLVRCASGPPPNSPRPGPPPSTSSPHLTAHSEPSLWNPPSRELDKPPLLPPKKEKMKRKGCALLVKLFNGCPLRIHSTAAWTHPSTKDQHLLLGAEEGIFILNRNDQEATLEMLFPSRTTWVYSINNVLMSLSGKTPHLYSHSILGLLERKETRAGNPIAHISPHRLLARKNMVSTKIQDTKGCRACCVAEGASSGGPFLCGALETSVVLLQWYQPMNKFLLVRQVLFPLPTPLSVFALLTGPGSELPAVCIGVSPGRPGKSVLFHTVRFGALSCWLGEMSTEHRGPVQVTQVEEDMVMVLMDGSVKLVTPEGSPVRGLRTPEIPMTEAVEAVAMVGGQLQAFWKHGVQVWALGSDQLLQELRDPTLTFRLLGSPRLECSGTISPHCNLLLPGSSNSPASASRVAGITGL
Serine/threonine-protein kinase ATR (Homo sapiens), sequence (Q13535 whole entry, looked up): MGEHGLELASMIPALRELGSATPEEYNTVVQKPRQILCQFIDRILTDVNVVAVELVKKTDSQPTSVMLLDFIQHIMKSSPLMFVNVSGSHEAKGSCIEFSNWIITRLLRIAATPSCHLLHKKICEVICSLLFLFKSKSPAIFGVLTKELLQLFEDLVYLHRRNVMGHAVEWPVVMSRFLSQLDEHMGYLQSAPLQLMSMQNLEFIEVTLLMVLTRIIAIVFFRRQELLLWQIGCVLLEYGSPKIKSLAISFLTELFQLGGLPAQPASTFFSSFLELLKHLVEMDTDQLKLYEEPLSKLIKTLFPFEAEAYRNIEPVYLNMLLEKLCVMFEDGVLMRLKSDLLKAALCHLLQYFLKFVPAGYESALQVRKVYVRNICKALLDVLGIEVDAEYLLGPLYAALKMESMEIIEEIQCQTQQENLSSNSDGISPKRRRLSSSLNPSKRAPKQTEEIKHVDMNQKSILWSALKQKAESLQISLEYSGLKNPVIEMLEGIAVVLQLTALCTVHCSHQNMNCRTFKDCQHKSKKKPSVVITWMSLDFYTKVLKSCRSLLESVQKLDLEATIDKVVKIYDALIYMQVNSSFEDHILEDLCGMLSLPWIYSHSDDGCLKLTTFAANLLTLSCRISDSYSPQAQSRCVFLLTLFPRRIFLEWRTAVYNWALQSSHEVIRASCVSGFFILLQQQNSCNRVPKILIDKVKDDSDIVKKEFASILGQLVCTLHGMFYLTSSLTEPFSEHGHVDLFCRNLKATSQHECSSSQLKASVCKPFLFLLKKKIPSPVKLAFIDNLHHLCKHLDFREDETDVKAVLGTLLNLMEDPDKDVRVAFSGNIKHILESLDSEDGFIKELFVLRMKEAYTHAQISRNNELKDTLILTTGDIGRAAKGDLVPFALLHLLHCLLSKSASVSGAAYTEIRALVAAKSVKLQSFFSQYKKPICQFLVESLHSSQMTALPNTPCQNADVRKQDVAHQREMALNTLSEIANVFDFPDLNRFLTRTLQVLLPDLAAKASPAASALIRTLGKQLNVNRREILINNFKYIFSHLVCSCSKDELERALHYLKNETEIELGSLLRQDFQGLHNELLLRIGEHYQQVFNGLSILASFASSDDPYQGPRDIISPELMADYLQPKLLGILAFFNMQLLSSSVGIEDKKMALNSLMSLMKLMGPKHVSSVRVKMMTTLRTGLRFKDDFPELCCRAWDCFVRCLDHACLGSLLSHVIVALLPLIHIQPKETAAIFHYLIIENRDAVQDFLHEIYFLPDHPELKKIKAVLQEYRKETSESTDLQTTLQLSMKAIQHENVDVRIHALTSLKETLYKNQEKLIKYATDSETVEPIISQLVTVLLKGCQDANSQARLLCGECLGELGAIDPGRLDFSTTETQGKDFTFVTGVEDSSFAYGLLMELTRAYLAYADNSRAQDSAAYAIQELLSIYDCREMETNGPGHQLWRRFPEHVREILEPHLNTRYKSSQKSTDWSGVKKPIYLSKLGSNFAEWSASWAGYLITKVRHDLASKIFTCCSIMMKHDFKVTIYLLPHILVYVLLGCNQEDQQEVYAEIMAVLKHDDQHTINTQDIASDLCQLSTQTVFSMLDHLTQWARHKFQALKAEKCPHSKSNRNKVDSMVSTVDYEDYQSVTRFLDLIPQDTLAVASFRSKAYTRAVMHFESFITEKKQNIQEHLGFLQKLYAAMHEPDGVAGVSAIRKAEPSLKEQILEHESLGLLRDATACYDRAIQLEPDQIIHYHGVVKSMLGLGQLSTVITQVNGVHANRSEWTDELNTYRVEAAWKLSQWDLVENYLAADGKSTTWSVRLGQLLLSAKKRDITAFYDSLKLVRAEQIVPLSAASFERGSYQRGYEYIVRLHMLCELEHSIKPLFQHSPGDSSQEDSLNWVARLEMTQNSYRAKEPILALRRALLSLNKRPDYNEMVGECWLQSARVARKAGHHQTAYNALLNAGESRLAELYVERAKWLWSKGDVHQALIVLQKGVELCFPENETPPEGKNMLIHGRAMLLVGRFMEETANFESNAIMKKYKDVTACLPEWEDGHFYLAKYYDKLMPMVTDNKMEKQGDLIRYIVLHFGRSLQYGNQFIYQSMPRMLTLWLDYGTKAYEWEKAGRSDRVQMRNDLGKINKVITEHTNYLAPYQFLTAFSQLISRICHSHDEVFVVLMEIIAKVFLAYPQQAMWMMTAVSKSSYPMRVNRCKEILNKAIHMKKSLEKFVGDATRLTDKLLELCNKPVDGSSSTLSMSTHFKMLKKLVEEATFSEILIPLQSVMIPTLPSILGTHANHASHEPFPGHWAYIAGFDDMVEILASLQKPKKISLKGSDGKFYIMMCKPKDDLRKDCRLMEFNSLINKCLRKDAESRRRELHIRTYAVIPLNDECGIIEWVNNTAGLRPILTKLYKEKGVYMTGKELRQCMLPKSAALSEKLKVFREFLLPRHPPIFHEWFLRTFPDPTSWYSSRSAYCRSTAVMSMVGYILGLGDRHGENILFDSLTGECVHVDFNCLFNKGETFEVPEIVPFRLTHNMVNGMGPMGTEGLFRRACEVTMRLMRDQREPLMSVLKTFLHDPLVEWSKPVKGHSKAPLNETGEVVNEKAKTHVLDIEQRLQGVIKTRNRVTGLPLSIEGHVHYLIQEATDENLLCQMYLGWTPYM

In the case of `CCN1CCN(Cc2ccc(NC(=O)c3ccc(C)c(/C=C/c4cnc5[nH]ccc5c4OC)c3)cc2C(F)(F)F)CC1`, the inhibition in experiment [1] was 3.2%. The molecule also gave a residual activity in experiment [2] of 0.55%.

Regarding `CCN1CCN(Cc2ccc(NC(=O)c3ccc(C)c(Oc4ccnc5[nH]ccc45)c3)cc2C(F)(F)F)CC1`, the inhibition entry in experiment [3] is “inactive”. Further, the inhibition in experiment [4] was -0.3%; in experiment [5] it was 5.1%.

As for `CNc1cc(Oc2cc(C(=O)Nc3cc(N4CCN(C)CC4)cc(C(F)(F)F)c3)ccc2C)ncn1`, the inhibition in experiment [6] was -6.7%.
